# Results published in patent publication US12387622B2, “Systems and methods for modeling veins and associated blood vessel components” (The Texas A&M University System, priority 2019, dated 2025).
# Tests used:
# [1] = tested on: thrombi formation within venous valves 50A-50C; assay: Vein-on-a-chip: anticoagulant-treated blood perfused through TNF-α treated, HUVEC-lined venous valves; platelets and fibrin imaged; type: cell-based, human; settings: for thrombi at cusps 52 and at the microfluidic channel 44B: DOAC dosage increased to 500 ng/ml; for thrombi at cusps 52 and at the microfluidic channel 44B / fibrin rich clots in cusps 52 / thrombi in the luminal portion of the microfluidic model 40: venous valve 50B treated with TNF-α
# Protocol: In this embodiment, to form microfluidic chip 40, microelectronic and semiconductor fabrication techniques were used to develop an SU-8 photoresist-based master mold. Particularly, computational fluid dynamics simulations were carried out to arrive at the open venous valve designs (e.g., venous valves 50A-50C) which contained recirculations as observed in venous valve cusps in vivo. The embodiments of the finalized venous valve designs shown in FIGS. 3-5 were developed using solid modeling computer-aided design (CAD) software (e.g., the SolidWorks™ software package published by Dassault Systemes) and a photomask of the finalized valve designs was used to fabricate the master mold using epoxy-based negative photoresist—SU-8 on a silicon wafer in this embodiment. In this embodiment for forming microchannels 44A-44C, once the master molds were fabricated, the wafers were treated with Silane, and Polydimethylsiloxane (PDMS) having an […] to crosslinker ratio of about 10:1 was poured into the master mold. In this embodiment, once the PDMS was set, the PDMS was striped and bonded to a PDMS coated glass slide to form microchannels 44A-44C, each microchannel 44A-44C having PDMS coated on each side thereof. Additionally, PDMS, being hydrophobic, was treated with plasma and then silanized with (3-aminopropyl) triethoxylsilane (APTES) to make the PDMS hydrophilic. In this embodiment, microchannels 44A-44C were then filled with type-I rat tail collagen of about 200 micrograms per milliliter (ug/ml) and fibronectin of about 50 ug/ml to form an extracellular matrix (ECM) configured to support endothelial cell growth on the walls of each microchannel 44A-44C.
# (§1) In this embodiment for forming microchannels 44A-44C, human umbilical vein endothelial cells (HUVECs) were cultured over a layer of the ECM coated on microchannels 44A-44C; however, in other embodiments, human or animal cell lines other than HUVECs may also be used in the formation of microchannels 44A-44C. In this embodiment, HUVECs, a human primary cell line derived from the human umbilical vein, were acquired and seeded on T75 flasks coated with type I rat tail collagen of about 5 micrograms (μg) per 5 cm^2, the HUVECs being seeded at about 50,000 cells per flask. In this embodiment, the endothelial growth media (EGM) (EGM-2 MV, promocell in this embodiment) disposed in the flasks were replaced every two days, and once the flasks were 80% confluent, the HUVECs were detached from the flasks and seeded on microchannels 44A-44C with about 20-30 microliters (μl) of cell suspension having cell density of about 1e7 cells per milliliter (ml). The cell suspension was passed through a cell strainer to remove debris and cell aggregates that were larger than about 40 μm in diameter. In this embodiment, microchannels 44A-44C were then first filled with cell suspension and kept upside down for about 20 minutes to seed the top face of microchannels 44A-44C, and then microchannels 44A-44C were again filled with cell suspension and kept upright for 20 minutes to seed the bottom faces of microchannels 44A-44C.
# To induce activation, the vascular lumen coated to microchannels 44A-44C was treated with the tumor necrosis factor (TNF) TNF-α at about 0-200 nanograms per milliliter (ng/ml) in this embodiment. Particularly, the seeded microchannels 44A-44C were perfused with media at about 1 ul/min for about 24 hours. Confluent lumen was formed on the walls of microchannels 44A-44C at the end of 24 hours. Additionally, in this embodiment, different doses TNF-α, a cytokine, was introduced into the confluent lumen of the channels for about 18 hours to observe the dose dependent inflammation of the endothelial cells in the straight sections of microchannels 44A-44C and venous valve cusps of venous valves 50A-50C.
# In this embodiment of the formation of microchannels 44A-44C, to evaluate role of hypoxia, microfluidic chip 40 was incubated at 3.9% oxygen. […]
# [2] = tested on: human umbilical vein endothelial cells (HUVECs); assay: Vein-on-a-chip: TNF-α stimulation of HUVEC lumen followed by blood perfusion at venous shear; type: cell-based
# Protocol: as §1, with “The cell suspension was passed through a cell strainer to remove debris and cell aggregates that were larger than about 40 μm in diameter. In this embodiment, microchannels 44A-44C were then first filled with cell suspension and kept upside down for about 20 minutes to seed the top face of microchannels 44A-44C, and then microchannels 44A-44C were again filled with cell suspension and kept upright for 20 minutes to seed the bottom faces of microchannels 44A-44C.” left out
# In this embodiment of the formation of microchannels 44A-44C, to evaluate role of hypoxia, microfluidic chip 40 was incubated at 3.9% oxygen. […] Fluorescently labelled platelets and fibrin were visualized and quantitated via microscopes positioned adjacent microchannels 44A-44C. Additionally, in this embodiment, typical vascular identity and adhesion markers were measured through immunohistochemistry. […]
# [3] = standard dosage 50 ng/ml of Apixaban in blood
# [4] = standard dosage 100 ng/ml of Rivaroxaban in blood
compound,measurement,setting,value
COc1ccc(-n2nc(C(N)=O)c3c2C(=O)N(c2ccc(N4CCCCC4=O)cc2)CC3)cc1 [Apixaban],thrombi at cusps 52 and at the microfluidic channel 44B,[1],thrombi detected
same,fibrin rich clots in cusps 52,[1]; [3],fibrin rich clots were present
same,thrombi in the luminal portion of the microfluidic model 40,[1]; [3],unobservable thrombi
O=C(NC[C@H]1CN(c2ccc(N3CCOCC3=O)cc2)C(=O)O1)c1ccc(Cl)s1 [Rivaroxaban],thrombi at cusps 52 and at the microfluidic channel 44B,[1],thrombi detected
same,fibrin rich clots in cusps 52,[1]; [4],fibrin rich clots were present
same,thrombi in the luminal portion of the microfluidic model 40,[1]; [4],unobservable thrombi
Heparin,thrombi formation within venous valves 50A-50C,"[1]; addition of heparin in blood, dose dependent",decreased the thrombi formation
same,fibrin in cusps 52,"[1]; higher Heparin dosage 0.50 IU/ml, TNF-α 5 ng/ml",only reduced at the higher Heparin dosage
same,fibrin within microfluidic model 40,"[1]; lower dose of Heparin (approximately 0.25 IU/ml), TNF-α 5 ng/ml",reduction in fibrin resulted
same,thrombi formed in microfluidic channels 44A-44C,"[1]; when the dosage of Heparin was increased (0.25 to 0.50 IU/ml), valve 50B treated with TNF-α 5 ng/ml, FIG. 38",reduced significantly
TNF-α,thrombi in venous valves upon stimulation of HUVECs,"[2]; blood perfused at venous shear of about 0.5 dynes/cm^2, no thrombi with untreated HUVECs",thrombi were detected
same,clot formation in lumen treated with varying doses of cytokine,[2]; blood perfused at venous shear rates,fibrin rich clots were predominantly formed in the venous valve cusps
